Measured values reported in US6403656B1, “Use of ppar-γ activators in dermatology” (Galderma Research & Development S.N.C, priority 1997, dated 2002).

Key:
[1] = test system: keratinocytes; assay: Determination of the keratinocyte proliferation (BrdU incorporation); conditions: statement in words
[2] = biological target: T1, PPARα (Homo sapiens, UniProt Q07869); assay: Transactivation test (luciferase reporter, cotransfected HeLa cells) via PPARα; conditions: read-out: AC50 (nM) − PPARα; HeLa cells cotransfected with receptor expression vector and PPRE-luciferase reporter, treated for 24 hours
T1 sequence (Q07869 1-468): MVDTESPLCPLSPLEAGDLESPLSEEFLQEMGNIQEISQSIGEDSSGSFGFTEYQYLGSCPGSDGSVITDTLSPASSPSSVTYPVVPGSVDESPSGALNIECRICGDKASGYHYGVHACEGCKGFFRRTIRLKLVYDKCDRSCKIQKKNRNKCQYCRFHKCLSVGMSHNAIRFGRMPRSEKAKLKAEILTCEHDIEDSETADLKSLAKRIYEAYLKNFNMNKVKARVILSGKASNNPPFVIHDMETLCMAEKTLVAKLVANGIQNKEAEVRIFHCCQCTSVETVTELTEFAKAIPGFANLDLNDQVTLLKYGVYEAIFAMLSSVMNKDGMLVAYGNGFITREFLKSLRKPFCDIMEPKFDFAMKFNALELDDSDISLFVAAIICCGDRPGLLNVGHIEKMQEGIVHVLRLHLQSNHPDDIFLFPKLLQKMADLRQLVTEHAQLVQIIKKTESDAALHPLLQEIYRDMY

[3] = biological target: T2, PPARγ (Homo sapiens, UniProt P37231); assay: Transactivation test (luciferase reporter, cotransfected HeLa cells) via PPARγ
T2 sequence (P37231 1-505): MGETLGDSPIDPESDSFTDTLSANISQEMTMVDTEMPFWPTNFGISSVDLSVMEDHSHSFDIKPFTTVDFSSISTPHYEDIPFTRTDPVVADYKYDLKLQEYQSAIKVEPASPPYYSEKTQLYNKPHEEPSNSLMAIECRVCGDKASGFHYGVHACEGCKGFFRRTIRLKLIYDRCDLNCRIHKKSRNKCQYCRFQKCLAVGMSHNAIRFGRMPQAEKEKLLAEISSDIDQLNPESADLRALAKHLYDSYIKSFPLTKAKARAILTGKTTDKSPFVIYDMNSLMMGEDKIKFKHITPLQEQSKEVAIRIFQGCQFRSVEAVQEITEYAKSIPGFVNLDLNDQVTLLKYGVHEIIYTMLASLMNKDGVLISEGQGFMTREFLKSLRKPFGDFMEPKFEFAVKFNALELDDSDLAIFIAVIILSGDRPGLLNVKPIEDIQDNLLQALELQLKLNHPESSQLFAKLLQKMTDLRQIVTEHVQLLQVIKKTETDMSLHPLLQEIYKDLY

SMILES	inhibitory activity on the proliferation of keratinocytes [1]	AC50 [2] [nM]	R1 (ratio of AC50 relative to PPAR-γ over AC50 relative to PPARα) ([3]; AC50 PPARγ / AC50 PPARα)	AC50 ([3]; read-out: AC50 (nM) − PPARγ, HeLa cells cotransfected with receptor expression vector and PPRE-luciferase reporter, treated for 24 hours) [nM]
CCCCC/C=C/C=C1/C(=O)C=CC1C/C=C\CCCC(=O)O (stereo not shown) [Compound E, 15-deoxy-Δ^12,14-prostaglandin J2(15-d PGJ2)]	weak, or even no inhibitory activity	2200	0.082	180
CN(CCOc1ccc(CC2SC(=O)NC2=O)cc1)c1ccccn1 (stereo not shown) [Compound A, 5-{4-[2-(methylpyrid-2-ylamino)-ethoxy]benzyl}thiazolidine-2,4-dione]	weak, or even no inhibitory activity			
CCOC(Cc1ccc(OCCN(C)c2nc3ccccc3o2)cc1)C(=O)O (single isomer, unassigned; (-)) [Compound D, (−)-3-{4-[2-(benzooxazol-2-ylmethylamino)-ethoxy]phenyl}-2-ethyoxypropionic acid]		1450		
CCOC(Cc1ccc(OCCN(C)c2nc3ccccc3o2)cc1)C(=O)O (single isomer, unassigned; (+)) [Compound C, (+)-3-{4-[2-(benzoxazol-2-ylmethylamino)-ethoxy]phenyl}-2-ethyoxypropionic acid]		4600		
